Test results reported in paper PMC3445516 (PLoS ONE, 2012).

Experiments:
Assay in all cases: Ambit kinase profiling, competition binding
ABL1(Q252H) = target: T1, ABL1(Q252H) (Homo sapiens, UniProt P00519, Q252H); details: compound concentration 10 uM, read-out: Percent Competition
T1 construct: purchased Ambit Biosciences (KINOMEscan)
Source text: (§1) Supplement pone.0044653.s004.xls, sheet "Compound 122" | column: Percent Competition

ABL1(Y253F) = target: T2, ABL1(Y253F) (Homo sapiens, UniProt P00519, Y253F); details: compound concentration 10 uM, read-out: Percent Competition
T2 construct: purchased Ambit Biosciences (KINOMEscan)
Source text: as §1

AKT1 = target: T3, AKT1 (Homo sapiens, UniProt P31749); details: compound concentration 10 uM, read-out: Percent Competition
T3 construct: purchased Ambit Biosciences (KINOMEscan)
Source text: as §1

BIKE = target: T4, BIKE (Homo sapiens, UniProt Q9NSY1); details: compound concentration 10 uM, read-out: Percent Competition
T4 construct: purchased Ambit Biosciences (KINOMEscan)
Source text: as §1

CDC2L1 = target: T5, CDC2L1 (Homo sapiens, UniProt P21127); details: compound concentration 10 uM, read-out: Percent Competition
T5 construct: purchased Ambit Biosciences (KINOMEscan)
Source text: as §1

CLK3 = target: T6, CLK3 (Homo sapiens, UniProt P49761); details: compound concentration 10 uM, read-out: Percent Competition
T6 construct: purchased Ambit Biosciences (KINOMEscan)
Source text: as §1

DCAMKL2 = target: T7, DCAMKL2 (Homo sapiens, UniProt Q8N568); details: compound concentration 10 uM, read-out: Percent Competition
T7 construct: purchased Ambit Biosciences (KINOMEscan)
Source text: as §1

DMPK = target: T8, DMPK (Homo sapiens, UniProt Q09013); details: compound concentration 10 uM, read-out: Percent Competition
T8 construct: purchased Ambit Biosciences (KINOMEscan)
Source text: as §1

DRAK2 = target: T9, DRAK2 (Homo sapiens, UniProt O94768); details: compound concentration 10 uM, read-out: Percent Competition
T9 construct: purchased Ambit Biosciences (KINOMEscan)
Source text: as §1

FES = target: T10, FES (Homo sapiens, UniProt P07332); details: compound concentration 10 uM, read-out: Percent Competition
T10 construct: purchased Ambit Biosciences (KINOMEscan)
Source text: as §1

FGFR1 = target: T11, FGFR1 (Homo sapiens, UniProt P11362); details: compound concentration 10 uM, read-out: Percent Competition
T11 construct: purchased Ambit Biosciences (KINOMEscan)
Source text: as §1

FGFR3 = target: T12, FGFR3 (Homo sapiens, UniProt P22607); details: compound concentration 10 uM, read-out: Percent Competition
T12 construct: purchased Ambit Biosciences (KINOMEscan)
Source text: as §1

FGFR3(G697C) = target: T13, FGFR3(G697C) (Homo sapiens, UniProt P22607, G697C); details: compound concentration 10 uM, read-out: Percent Competition
T13 construct: purchased Ambit Biosciences (KINOMEscan)
Source text: as §1

FGR = target: T14, FGR (Homo sapiens, UniProt P09769); details: compound concentration 10 uM, read-out: Percent Competition
T14 construct: purchased Ambit Biosciences (KINOMEscan)
Source text: as §1

FLT4 = target: T15, FLT4 (Homo sapiens, UniProt P35916); details: compound concentration 10 uM, read-out: Percent Competition
T15 construct: purchased Ambit Biosciences (KINOMEscan)
Source text: as §1

FYN = target: T16, FYN (Homo sapiens, UniProt P06241); details: compound concentration 10 uM, read-out: Percent Competition
T16 construct: purchased Ambit Biosciences (KINOMEscan)
Source text: as §1

IKK-beta = target: T17, IKK-beta (Homo sapiens, UniProt O14920); details: compound concentration 10 uM, read-out: Percent Competition
T17 construct: purchased Ambit Biosciences (KINOMEscan)
Source text: as §1

KIT(V559D,T670I) = target: T18, KIT(V559D,T670I) (Homo sapiens, UniProt P10721, T670I/V559D); details: compound concentration 10 uM, read-out: Percent Competition
T18 construct: purchased Ambit Biosciences (KINOMEscan)
Source text: as §1

LTK = target: T19, LTK (Homo sapiens, UniProt P29376); details: compound concentration 10 uM, read-out: Percent Competition
T19 construct: purchased Ambit Biosciences (KINOMEscan)
Source text: as §1

MEK1 = target: T20, MEK1 (Homo sapiens, UniProt Q02750); details: compound concentration 10 uM, read-out: Percent Competition
T20 construct: purchased Ambit Biosciences (KINOMEscan)
Source text: as §1

MYLK = target: T21, MYLK (Homo sapiens, UniProt Q15746); details: compound concentration 10 uM, read-out: Percent Competition
T21 construct: purchased Ambit Biosciences (KINOMEscan)
Source text: as §1

MYO3B = target: T22, MYO3B (Homo sapiens, UniProt Q8WXR4); details: compound concentration 10 uM, read-out: Percent Competition
T22 construct: purchased Ambit Biosciences (KINOMEscan)
Source text: as §1

NEK5 = target: T23, NEK5 (Homo sapiens, UniProt Q6P3R8); details: compound concentration 10 uM, read-out: Percent Competition
T23 construct: purchased Ambit Biosciences (KINOMEscan)
Source text: as §1

NEK7 = target: T24, NEK7 (Homo sapiens, UniProt Q8TDX7); details: compound concentration 10 uM, read-out: Percent Competition
T24 construct: purchased Ambit Biosciences (KINOMEscan)
Source text: as §1

PAK6 = target: T25, PAK6 (Homo sapiens, UniProt Q9NQU5); details: compound concentration 10 uM, read-out: Percent Competition
T25 construct: purchased Ambit Biosciences (KINOMEscan)
Source text: as §1

PDPK1 = target: T26, PDPK1 (Homo sapiens, UniProt O15530); details: compound concentration 10 uM, read-out: Percent Competition
T26 construct: purchased Ambit Biosciences (KINOMEscan)
Source text: as §1

PFTK1 = target: T27, PFTK1 (Homo sapiens, UniProt O94921); details: compound concentration 10 uM
T27 construct: purchased Ambit Biosciences (KINOMEscan)
Source text: as §1

PKAC-alpha = target: T28, PKAC-alpha (Homo sapiens, UniProt P17612); details: compound concentration 10 uM, read-out: Percent Competition
T28 construct: purchased Ambit Biosciences (KINOMEscan)
Source text: as §1

PKMYT1 = target: T29, PKMYT1 (Homo sapiens, UniProt Q99640); details: compound concentration 10 uM
T29 construct: purchased Ambit Biosciences (KINOMEscan)
Source text: as §1

PLK3 = target: T30, PLK3 (Homo sapiens, UniProt Q9H4B4); details: compound concentration 10 uM, read-out: Percent Competition
T30 construct: purchased Ambit Biosciences (KINOMEscan)
Source text: as §1

RIOK2 = target: T31, RIOK2 (Homo sapiens, UniProt Q9BVS4); details: compound concentration 10 uM, read-out: Percent Competition
T31 construct: purchased Ambit Biosciences (KINOMEscan)
Source text: as §1

[1] = target: T32, RPS6KA2(Kin.Dom.1-N-terminal) (Homo sapiens, UniProt Q15349); details: compound concentration 10 uM, read-out: Percent Competition
T32 construct: RPS6KA2(Kin.Dom.1-N-terminal); purchased Ambit Biosciences (KINOMEscan)
Source text: as §1

[2] = target: T33, RPS6KA2(Kin.Dom.2-C-terminal) (Homo sapiens, UniProt Q15349); details: compound concentration 10 uM, read-out: Percent Competition
T33 construct: RPS6KA2(Kin.Dom.2-C-terminal); purchased Ambit Biosciences (KINOMEscan)
Source text: as §1

[3] = target: T34, RPS6KA4(Kin.Dom.2-C-terminal) (Homo sapiens, UniProt O75676); details: compound concentration 10 uM, read-out: Percent Competition
T34 construct: RPS6KA4(Kin.Dom.2-C-terminal); purchased Ambit Biosciences (KINOMEscan)
Source text: as §1

SIK = target: T35, SIK (Homo sapiens, UniProt P57059); details: compound concentration 10 uM
T35 construct: purchased Ambit Biosciences (KINOMEscan)
Source text: as §1

SgK110 = target: T36, SgK110 (Homo sapiens, UniProt P0C264); details: compound concentration 10 uM, read-out: Percent Competition
T36 construct: purchased Ambit Biosciences (KINOMEscan)
Source text: as §1

TESK1 = target: T37, TESK1 (Homo sapiens, UniProt Q15569); details: compound concentration 10 uM, read-out: Percent Competition
T37 construct: purchased Ambit Biosciences (KINOMEscan)
Source text: as §1

VEGFR2 = target: T38, VEGFR2 (Homo sapiens, UniProt P35968); details: compound concentration 10 uM, read-out: Percent Competition
T38 construct: purchased Ambit Biosciences (KINOMEscan)
Source text: as §1

WEE1 = target: T39, WEE1 (Homo sapiens, UniProt P30291); details: compound concentration 10 uM, read-out: Percent Competition
T39 construct: purchased Ambit Biosciences (KINOMEscan)
Source text: as §1

ZAK = target: T40, ZAK (Homo sapiens, UniProt Q9NYL2); details: compound concentration 10 uM, read-out: Percent Competition
T40 construct: purchased Ambit Biosciences (KINOMEscan)
Source text: as §1

T8 sequence (Q09013 whole entry): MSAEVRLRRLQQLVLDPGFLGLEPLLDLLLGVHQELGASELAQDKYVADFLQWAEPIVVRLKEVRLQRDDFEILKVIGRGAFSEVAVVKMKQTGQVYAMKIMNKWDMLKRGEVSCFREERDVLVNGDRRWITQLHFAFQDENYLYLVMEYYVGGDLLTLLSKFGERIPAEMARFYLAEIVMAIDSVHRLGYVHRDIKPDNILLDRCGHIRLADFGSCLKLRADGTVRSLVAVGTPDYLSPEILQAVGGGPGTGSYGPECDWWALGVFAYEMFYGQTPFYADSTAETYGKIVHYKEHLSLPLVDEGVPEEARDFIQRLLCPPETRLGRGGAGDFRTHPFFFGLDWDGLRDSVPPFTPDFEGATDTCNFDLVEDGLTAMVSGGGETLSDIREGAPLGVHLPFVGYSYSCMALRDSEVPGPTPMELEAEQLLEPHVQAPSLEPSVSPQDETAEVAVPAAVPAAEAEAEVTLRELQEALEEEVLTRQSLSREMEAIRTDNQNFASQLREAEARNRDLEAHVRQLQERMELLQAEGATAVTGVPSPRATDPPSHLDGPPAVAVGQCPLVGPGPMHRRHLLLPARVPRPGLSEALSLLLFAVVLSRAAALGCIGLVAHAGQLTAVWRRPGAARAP
T38 sequence (P35968 20-1356): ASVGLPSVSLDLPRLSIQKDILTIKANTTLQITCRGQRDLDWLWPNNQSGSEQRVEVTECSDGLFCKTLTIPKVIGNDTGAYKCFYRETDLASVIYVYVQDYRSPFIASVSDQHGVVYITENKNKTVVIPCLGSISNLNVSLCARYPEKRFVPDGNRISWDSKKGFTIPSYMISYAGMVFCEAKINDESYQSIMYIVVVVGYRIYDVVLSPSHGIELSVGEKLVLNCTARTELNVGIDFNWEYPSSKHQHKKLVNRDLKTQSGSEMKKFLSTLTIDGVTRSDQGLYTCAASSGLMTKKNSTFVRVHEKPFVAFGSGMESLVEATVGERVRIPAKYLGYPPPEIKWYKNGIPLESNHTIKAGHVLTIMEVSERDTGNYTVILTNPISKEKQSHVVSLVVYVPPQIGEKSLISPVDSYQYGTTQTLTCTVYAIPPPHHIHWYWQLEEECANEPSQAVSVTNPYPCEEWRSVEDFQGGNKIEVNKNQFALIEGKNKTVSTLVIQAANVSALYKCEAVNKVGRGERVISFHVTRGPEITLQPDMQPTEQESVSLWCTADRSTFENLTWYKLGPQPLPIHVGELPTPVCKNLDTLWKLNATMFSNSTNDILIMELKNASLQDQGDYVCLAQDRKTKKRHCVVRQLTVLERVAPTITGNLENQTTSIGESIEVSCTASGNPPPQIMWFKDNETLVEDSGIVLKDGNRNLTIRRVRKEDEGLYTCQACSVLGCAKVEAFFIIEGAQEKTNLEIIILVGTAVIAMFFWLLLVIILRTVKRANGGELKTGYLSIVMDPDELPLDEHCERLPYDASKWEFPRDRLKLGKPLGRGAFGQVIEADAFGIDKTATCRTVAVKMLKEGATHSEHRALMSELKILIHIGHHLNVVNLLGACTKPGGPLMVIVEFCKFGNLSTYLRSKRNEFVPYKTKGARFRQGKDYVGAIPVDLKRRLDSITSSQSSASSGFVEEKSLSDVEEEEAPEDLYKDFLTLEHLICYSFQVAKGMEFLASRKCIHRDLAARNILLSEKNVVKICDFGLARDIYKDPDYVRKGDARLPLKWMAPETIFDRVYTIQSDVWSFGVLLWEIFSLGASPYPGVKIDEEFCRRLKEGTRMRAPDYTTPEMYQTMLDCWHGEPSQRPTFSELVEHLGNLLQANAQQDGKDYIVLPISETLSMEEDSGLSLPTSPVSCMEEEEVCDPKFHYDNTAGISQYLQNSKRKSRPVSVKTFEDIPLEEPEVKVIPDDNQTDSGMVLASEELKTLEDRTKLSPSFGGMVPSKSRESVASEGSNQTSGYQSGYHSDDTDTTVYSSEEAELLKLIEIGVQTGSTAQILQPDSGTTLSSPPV
T23 sequence (Q6P3R8 whole entry): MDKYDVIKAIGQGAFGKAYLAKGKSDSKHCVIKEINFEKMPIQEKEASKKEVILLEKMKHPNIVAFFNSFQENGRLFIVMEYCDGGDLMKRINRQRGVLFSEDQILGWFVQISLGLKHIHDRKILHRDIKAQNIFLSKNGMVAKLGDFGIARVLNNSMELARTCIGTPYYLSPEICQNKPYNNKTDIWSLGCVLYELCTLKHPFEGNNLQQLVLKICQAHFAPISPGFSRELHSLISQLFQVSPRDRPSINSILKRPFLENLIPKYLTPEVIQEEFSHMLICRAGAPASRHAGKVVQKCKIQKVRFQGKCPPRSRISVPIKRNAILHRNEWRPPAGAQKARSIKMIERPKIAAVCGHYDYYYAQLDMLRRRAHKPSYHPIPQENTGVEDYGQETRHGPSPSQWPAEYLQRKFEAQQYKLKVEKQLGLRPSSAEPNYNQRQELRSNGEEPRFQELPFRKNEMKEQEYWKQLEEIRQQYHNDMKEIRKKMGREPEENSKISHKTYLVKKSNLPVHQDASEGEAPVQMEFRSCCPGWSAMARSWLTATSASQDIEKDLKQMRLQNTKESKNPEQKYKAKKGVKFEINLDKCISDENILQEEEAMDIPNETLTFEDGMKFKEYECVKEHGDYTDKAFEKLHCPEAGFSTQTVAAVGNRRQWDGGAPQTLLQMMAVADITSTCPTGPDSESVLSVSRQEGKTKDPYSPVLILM
T32 sequence (Q15349 1-388 limits assumed): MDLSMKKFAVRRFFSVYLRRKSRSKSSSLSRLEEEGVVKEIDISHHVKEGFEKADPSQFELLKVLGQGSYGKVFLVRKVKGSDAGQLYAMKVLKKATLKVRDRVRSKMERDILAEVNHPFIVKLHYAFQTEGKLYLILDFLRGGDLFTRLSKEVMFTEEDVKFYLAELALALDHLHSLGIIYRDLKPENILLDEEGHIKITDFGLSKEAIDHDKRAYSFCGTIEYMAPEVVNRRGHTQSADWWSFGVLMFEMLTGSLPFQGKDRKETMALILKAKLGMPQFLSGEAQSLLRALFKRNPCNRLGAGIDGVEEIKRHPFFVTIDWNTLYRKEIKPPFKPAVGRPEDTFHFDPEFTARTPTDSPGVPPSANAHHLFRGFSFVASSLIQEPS
T11 sequence (P11362 22-822): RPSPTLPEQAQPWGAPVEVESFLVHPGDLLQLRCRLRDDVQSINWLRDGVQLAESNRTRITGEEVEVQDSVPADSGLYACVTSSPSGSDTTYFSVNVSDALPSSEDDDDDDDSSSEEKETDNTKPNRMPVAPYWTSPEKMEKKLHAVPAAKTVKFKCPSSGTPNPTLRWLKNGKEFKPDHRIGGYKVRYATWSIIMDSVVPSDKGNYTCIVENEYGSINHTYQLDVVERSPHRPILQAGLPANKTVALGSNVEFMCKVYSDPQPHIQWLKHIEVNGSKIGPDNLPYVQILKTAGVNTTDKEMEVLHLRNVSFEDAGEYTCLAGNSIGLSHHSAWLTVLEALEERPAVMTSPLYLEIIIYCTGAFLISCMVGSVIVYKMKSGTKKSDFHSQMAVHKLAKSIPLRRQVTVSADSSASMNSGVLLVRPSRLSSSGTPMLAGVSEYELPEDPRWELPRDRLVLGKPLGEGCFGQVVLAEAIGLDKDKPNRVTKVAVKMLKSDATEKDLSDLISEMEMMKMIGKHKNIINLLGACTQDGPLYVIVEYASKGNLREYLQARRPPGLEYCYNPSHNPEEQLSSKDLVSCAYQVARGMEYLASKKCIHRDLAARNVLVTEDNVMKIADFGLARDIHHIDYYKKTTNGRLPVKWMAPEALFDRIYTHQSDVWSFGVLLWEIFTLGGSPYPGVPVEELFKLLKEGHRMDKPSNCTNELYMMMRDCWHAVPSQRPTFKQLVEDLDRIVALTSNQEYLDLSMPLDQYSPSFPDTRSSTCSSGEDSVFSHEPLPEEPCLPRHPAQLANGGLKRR
T40 sequence (Q9NYL2 whole entry): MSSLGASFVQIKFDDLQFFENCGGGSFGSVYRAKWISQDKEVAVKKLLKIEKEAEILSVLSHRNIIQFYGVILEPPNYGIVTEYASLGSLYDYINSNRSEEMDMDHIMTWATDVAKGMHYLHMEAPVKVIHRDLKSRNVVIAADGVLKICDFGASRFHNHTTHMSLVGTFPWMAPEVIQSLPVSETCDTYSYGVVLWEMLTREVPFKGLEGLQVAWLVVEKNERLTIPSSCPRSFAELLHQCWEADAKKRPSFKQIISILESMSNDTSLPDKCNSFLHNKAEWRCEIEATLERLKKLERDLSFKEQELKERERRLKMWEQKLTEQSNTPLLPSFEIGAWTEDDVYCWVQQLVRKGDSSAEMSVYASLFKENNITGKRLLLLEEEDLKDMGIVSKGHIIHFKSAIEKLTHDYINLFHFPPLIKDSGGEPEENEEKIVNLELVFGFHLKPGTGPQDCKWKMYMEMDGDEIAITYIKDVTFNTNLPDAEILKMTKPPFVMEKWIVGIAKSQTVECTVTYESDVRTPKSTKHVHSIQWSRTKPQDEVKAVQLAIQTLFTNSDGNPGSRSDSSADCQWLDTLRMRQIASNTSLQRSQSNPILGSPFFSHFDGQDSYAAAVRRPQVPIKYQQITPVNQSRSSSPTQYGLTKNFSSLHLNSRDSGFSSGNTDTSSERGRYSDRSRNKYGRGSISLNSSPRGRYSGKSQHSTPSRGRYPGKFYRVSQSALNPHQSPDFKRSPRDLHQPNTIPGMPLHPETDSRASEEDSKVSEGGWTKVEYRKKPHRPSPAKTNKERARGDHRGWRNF
T9 sequence (O94768 whole entry): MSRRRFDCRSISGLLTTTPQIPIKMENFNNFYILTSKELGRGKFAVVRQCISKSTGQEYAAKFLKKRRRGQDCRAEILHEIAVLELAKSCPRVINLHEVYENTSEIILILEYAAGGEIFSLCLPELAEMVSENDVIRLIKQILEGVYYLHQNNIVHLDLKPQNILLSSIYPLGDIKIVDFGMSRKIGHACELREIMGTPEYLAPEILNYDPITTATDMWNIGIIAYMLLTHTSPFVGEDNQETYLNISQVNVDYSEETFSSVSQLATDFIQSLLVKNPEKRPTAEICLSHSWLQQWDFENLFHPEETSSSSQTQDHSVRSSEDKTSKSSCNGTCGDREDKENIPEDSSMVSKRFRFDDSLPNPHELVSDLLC

inhibition at 10 µM (ABL1(Q252H)): < 50%
inhibition at 10 µM (ABL1(Y253F)): < 50%
inhibition at 10 µM (AKT1): < 50%
inhibition at 10 µM (BIKE): < 50%
inhibition at 10 µM (CDC2L1): 91%
inhibition at 10 µM (CLK3): < 50%
inhibition at 10 µM (DCAMKL2): < 50%
inhibition at 10 µM (DMPK): < 50%
inhibition at 10 µM (DRAK2): < 50%
inhibition at 10 µM (FES): < 50%
inhibition at 10 µM (FGFR1): < 50%
inhibition at 10 µM (FGFR3): < 50%
inhibition at 10 µM (FGFR3(G697C)): < 50%
inhibition at 10 µM (FGR): < 50%
inhibition at 10 µM (FLT4): < 50%
inhibition at 10 µM (FYN): < 50%
inhibition at 10 µM (IKK-beta): < 50%
inhibition at 10 µM (KIT(V559D,T670I)): < 50%
inhibition at 10 µM (LTK): < 50%
inhibition at 10 µM (MEK1): < 50%
inhibition at 10 µM (MYLK): < 50%
inhibition at 10 µM (MYO3B): < 50%
inhibition at 10 µM (NEK5): < 50%
inhibition at 10 µM (NEK7): < 50%
inhibition at 10 µM (PAK6): < 50%
inhibition at 10 µM (PDPK1): < 50%
Percent Competition (PFTK1): <50%
inhibition at 10 µM (PKAC-alpha): < 50%
Percent Competition (PKMYT1): <50%
inhibition at 10 µM (PLK3): < 50%
inhibition at 10 µM (RIOK2): < 50%
inhibition at 10 µM [1]: < 50%
inhibition at 10 µM [2]: < 50%
inhibition at 10 µM [3]: < 50%
Percent Competition (SIK): <50%
inhibition at 10 µM (SgK110): < 50%
inhibition at 10 µM (TESK1): < 50%
inhibition at 10 µM (VEGFR2): < 50%
inhibition at 10 µM (WEE1): < 50%
inhibition at 10 µM (ZAK): < 50%
SMILES: Fc1ccc(-c2c(-c3ccncc3)[nH]c3nccnc23)cc1 [RO1155697-000-005]
